Legend:
[1] = biological target: T1, NMDA receptor glycine site (Rattus norvegicus, UniProt P35439); test: Test A: Inhibition of binding of [3H]-MDL105,519, rat brain membranes; details: 1.2 nM [3H]MDL105,519
T1 construct: The rat brain membranes used in the experiments were obtained from Analytical Biological Services Inc; tissue Analytical Biological Services Inc; host or cells: rat brain (cerebral cortex and hippocampus) membranes
Protocol: (§1) Test A: Inhibition of Binding of [^3H]-MDL105,519
The rat brain membranes used in the experiments were obtained from Analytical Biological Services Inc., and were prepared substantially in accordance with the method of B. M. Baron et al., J. Pharmacol. Exp. Ther. 250, 162 (1989). Briefly, fresh brain tissue including cerebral cortex and hippocampus from male Sprague Dawley rats was homogenized in 0.32 M sucrose and centrifuged at low speed to separate cellular membranes from other cellular components. The membranes were then washed 3 times using deionized water, followed by treatment with 0.04% Triton X-100. Finally, membranes were washed six times in 50 mM Tris citrate buffer, pH 7.4, and frozen at −80° C. until use.
[^3H]MDL105,519 (72 Ci/mmol) was purchased from Amersham. Cold MDL105,519 was purchased from Sigma/RBI. Binding assays were performed substantially in accordance with the protocol of B. M. Baron et al, J. Pharmacol. Exp. Ther. 279, 62 (1996), as follows. […] Non specific binding was determined by using 100 μM of unlabeled MDL105,519. […] The plates were dried overnight at room temperature and bound radioactivity was measured on a Packard TopCount after the addition of 45 μL per well of the MICROSCINT O. Potency of a compound is expressed as the Ki and results were calculated using Microsoft Excel spreadsheet and GraphPad Prizm software.

[2] = test system: panel of more than 80 non-NMDA receptors; test: Binding to a panel of more than 80 non-NMDA receptors
Protocol: The compound of the invention was also tested for binding to a panel of more than 80 non-NMDA receptors.

[3] = test system: CCI rats, heat hyperalgesia; test: Test C: Neuropathic pain model (Chronic Constriction Injury), thermal hyperalgesia; format: in vivo, rat
Protocol: Test C: Neuropathic Pain Model (Chronic Constriction Injury)
Dose response studies are conducted with multiple groups of CCI rats dosed orally with either vehicle or the test compound three times daily with either vehicle or the test compound for 5 days. […] Efficacy is calculated as mean percentage decrease of hyperalgesia over 5 dosing days compared to vehicle-treated group. Compound potencies are expressed as the minimum effective dose (MED) in mg/Kg/day that yields a % decrease in hyperalgesia that is statistically significant, where the anti-hyperalgesic effect is determined as follows:
% of anti-hyperalgesia=(Mean of vehicle group−Mean of compound group)×100 (Mean of vehicle group)
Data analysis was performed by multiple means comparison (Dunnett's test).

[4] = biological target: T2, NMDA receptor glycine site (Homo sapiens, UniProt Q05586); test: Test A: Inhibition of binding of [3H]-MDL105,519, human brain membranes
T2 construct: Human brain membranes were obtained from Analytical Biological Services Inc; tissue Analytical Biological Services Inc; host or cells: human brain membranes
Protocol: as §1
[^3H]MDL105,519 (72 Ci/mmol) was purchased from Amersham. Cold MDL105,519 was purchased from Sigma/RBI. Binding assays were performed substantially in accordance with the protocol of B. M. Baron et al, J. Pharmacol. Exp. Ther. 279, 62 (1996), as follows. On the day of the experiment, brain membranes were thawed at room temperature and suspended in 50 mM tris acetate buffer, pH 7.4 (“TAB”). Seventy-five micro grams per milliliter protein (by using the BioRad dye) were used for competition binding. The experiments were carried out using 96-well plates. Membranes were incubated with 20 μL of compounds of various concentrations and 1.2 nM [^3H]MDL105,519 for 30 minutes at room temperature in a total volume of 250 μL. Non specific binding was determined by using 100 μM of unlabeled MDL105,519. The unlabeled MDL105,519 and compounds were dissolved as 12.5 mM stock solutions in DMSO. Final DMSO concentration in each well was kept below 1%, which concentration was found not to alter the binding results. […] The plates were dried overnight at room temperature and bound radioactivity was measured on a Packard TopCount after the addition of 45 μL per well of the MICROSCINT O. Potency of a compound is expressed as the Ki and results were calculated using Microsoft Excel spreadsheet and GraphPad Prizm software. […]

[5] = test system: NMDA induced behavior/seizure; test: Inhibition of NMDA induced behavior/seizure after intrathecal injection; format: in vivo; design: unit not given here
[6] = test system: formalin-induced nociceptive behaviors in rats; test: Test B: Formalin test (formalin-induced nociceptive behaviors); format: in vivo, rat
Source text: The Formalin test assesses the inhibitory effects of orally administered compounds on formalin-induced nociceptive behaviors in rats (D. Dubuisson, et al., Pain 4, 161-174 (1977); H. Wheeler-Aceto et al., Psychopharmacology 104, 35-44 (1991); T. J. Coderre, et al, Pain 54, 43-50 (1993)). In the test two distinctive phases of formalin-induced behaviors are detected. A first phase response, caused by acute nociception to the noxious chemical (formalin) injected into the paw, occurs between 0 to 5 minutes. A quiescent period of between 5 to 15 min post injection follows. After the quiescent period a second phase response, caused by sensitization of the central neurons in the dorsal horn, occurs after 15 minutes and lasts up to 60 minutes. Central sensitization augments a noxious afferent input causing a stronger pain barrage to be transmitted to the brain. Inhibition of the second phase response indicates a spinal mechanism of drug action.
The procedure for the formalin test is as follows: male rats are placed in a plexiglass chamber and observed for 30-45 min. to observe their baseline activity. […] The number of paw flinches (responses) during first phase (0-5 min.) and second phase (20-35 min.) are scored and recorded. Flinch response is calculated as percentage of inhibition compared with the mean score of a saline control group. […]

| Compound | Ki [1] | Interaction with non-NMDA receptors [2] | Minimal effective dose / dose required, CCI model of neuropathic pain [3] | MED (minimum effective dose), CCI model of neuropathic pain ([3]; oral, three times daily for 5 days) | Ki [4] | ED50 for inhibition of development of NMDA induced behavior/seizure [5] | ED50 ([6]; Rattus norvegicus, po, read-out: Efficacy in formalin pain model, ED50) | % anti-hyperalgesia in CCI model of neuropathic pain, heat hyperalgesia ([3]; oral, three times daily for 5 days, at the stated effective dose) | Efficacy in formalin pain model, ED50 ([6]; rats, oral, dosed 3 hours prior to formalin, dose producing 50% inhibition of nociceptive response) |
| --- | --- | --- | --- | --- | --- | --- | --- | --- | --- |
| Cc1ccc(-n2nc(O)c3nc4cc(Cl)ccc4c(O)c3c2=O)c(Cl)c1 [compound of the invention, 7-chloro-4-hydroxy-2-(2-chloro-4-methylphenyl)-1,2,5,10-tetrahydropyridazino[4,5-b]quinoline-1,10-dione] | 56 nM | no significant interaction | less than 2 mg/Kg/day | MED < 2 mg/Kg/d | 50 nM | 110 | ~100 mg/kg | – | – |
| NCC1(CC(=O)O)CCCCC1 [gabapentin, reference compound] | – | – | about 90 mg/Kg/day | – | – | – | – | about 46% | comparable |
